Broadly, the pIC50 is the IC50 on a negative log10 scale, so that one unit is a factor of ten. Read a low pIC50 as a high IC50.

pIC50: −log10 of the molar value. Read-outs that look alike come from different tables or passages of the source.

Consider three compounds from patent EP4653443A1, “STEREOISOMER AND DEUTERATED DERIVATIVE OF PYRAZOLOQUINAZOLINE COMPOUND AND USE” (Phil Rivers Technology Co., Ltd, priority 2023, dated 2024).

Data set [1] concerns pancreatic cancer cell line (PSN1). Put plainly: Proliferation inhibitory activity on cell line PSN1 (CellTiter-Glo, 72 hours). Format: cell-based. The note with it: for pIC50: Homo sapiens, PSN1 cell proliferation; for Max Inhibition Percentage: PSN1 cells. As for the experimental part:
• a) Adherent cells need to be digested and centrifuged, while suspension cells can be directly centrifuged; • b) Resuspend with complete culture medium and count using an automatic cell counter; • c) Plate 6,000 cells per well for PSN1, and dilute the cell suspension to the required density; • d) Add 100 µL of cells per well, and culture overnight at 37°C in a 5% CO2 incubator to stabilize and balance the cells.
• a) Prepare the compound with DMSO as a solution of 200-fold final concentration; • b) Dilute the 200-fold compound to a 3-fold final concentration with complete culture medium; • c) Add 50 µL of the compound per well, use wells with the same volume of culture medium as controls, and continue culturing in a 37°C, 5% CO2 incubator for 72 hours.
• a) Equilibrate the cell plate and CTG reagent to room temperature; • b) Add 30 µL of CellTiter-Glo® reagent per well; • c) Incubate at room temperature for 15 minutes; • d) Detect with a microplate reader.
• 1) Calculate IC50 using GraphPad Prism 8; • 2) %Inh = (1-(Raw data - Meanmin) / (Meanmax - Meanmin))×100; • 3) Meanmax is the positive control well with only cells and the same volume of culture medium; • 4) Meanmin is the negative control well with only culture medium; • 5) Raw data refers to the signal values of wells with added compounds. For two replicate wells, they are denoted as Raw1 and Raw2.

For data set [2], the system named is HCT116 cells. The format is in vivo. The note with it: for TGI: test endpoint (PG-D22), TGITV. As to the method: • Balb/c nude mice: SPF grade, female, 6-8 weeks old, weighing 16-20 g, purchased from SPF (Beijing) Biotechnology Co., Ltd. • HCT116 cells: purchased from ATCC;
HCT116 cells were cultured in RPMI-1640 medium containing inactivated 10% fetal bovine serum, 100 U/mL penicillin, 100 µg/mL streptomycin and 2 mM glutamine in an incubator at 37°C with 5% CO2. Once the cells reached confluence, they were subcultured into new flasks. The tumor cells in the logarithmic growth phase were used for inoculation of tumors in vivo.
The tumor cells were washed twice with PBS, and the cell concentration was adjusted to 5×10^7/ml. The resuspended tumor cells were inoculated subcutaneously in the right flank of the experimental animals at 100 µL/mouse, i.e. 5×10^6/mouse. When the tumor grew to an average tumor volume of […], the animals were grouped for drug administration according to the tumor volume, with a total of 7 groups, 8 animals in each group. The first day of group drug administration was recorded as PG-D0. Table 25. Administration Schedule
During the administration, the health status of the animals is monitored.
From grouping until the end of the experiment, mouse body weight was measured every 3 days using an electronic balance.
From grouping until the end of the experiment, the long and short diameters of the mouse tumors were measured every 3 days using an electronic vernier caliper, and the volume was calculated using the formula: Volume (TV) = 0.5 × long diameter × (short diameter)^2.
RTV is the relative tumor volume, that is, the ratio of the tumor volume after administration to that before administration.
Graphpad prism 8 statistical software was used to perform statistical analysis of tumor volume and tumor weight among groups using the One-Way ANOVA test (homogeneity of variance), and p < 0.05 was considered statistically significant.

Data set [3] can be described thus: Pharmacokinetic study in mice (IV and PO, plasma LC-MS/MS).
Protocol: The objective of this study is to investigate the pharmacokinetic properties of the disclosed compounds after tail vein intravenous injection (IV) and oral administration (PO) in female CD1 mice. Plasma was sampleed at 0, 0.083, 0.25, 0.5, 1, 2, 4, 7 and 24 hours post-dosing, and the drug concentrations in plasma at different time points were detected by LC-MS/MS, and the relevant pharmacokinetic parameters were calculated using WinNonlin software.
Experimental female CD1 mice were purchased from SPF Laboratory Animal Technology Co., Ltd., aged 6-8 weeks with body weights of 20-30 g. The female CD1 mice were housed in a controlled environment (set temperature at 20-25°C and relative humidity at 40-70%). A 12-hour light/12-hour dark cycle was maintained unless interrupted by study-related events.
Compound solutions are prepared in an ultra-clean workbench and prepared immediately before use, and mixed thoroughly prior to use to ensure formulation homogeneity.
Vehicle composition: 10% DMSO+90% (20%SBE-β-CD) Table 4. Doses Used in IV Administration
Vehicle composition: 10% DMSO + 90% (20%SBE-β-CD) Table 5. Doses Used in PO Administration
Vehicle composition: 0.5% MC + 1% Tween-20 Table 6. Doses Used in PO Administration
Prior to the experiment, the animals were randomly grouped. The mice were fasted for 12 hours before drug administration, and free feeding was resumed 4 hours after administration.
All blood samples were transferred into plastic microcentrifuge tubes containing anticoagulant (EDTA-K2), and then centrifuged at 4000 g for 5 minutes at 4°C. The supernatant was transferred into a microcentrifuge tube without anticoagulant, and the plasma was stored in a -75±15°C refrigerator until detection.
The blood samples were purified by HPLC and analyzed by mass spectrometry to obtain the plasma concentration-time curve of the disclosed compound.
The pharmacokinetic parameters were estimated by non-compartmental model method (calculated by Phoenix WinNonlin software).
Where [4] appears, read: 30 mg/kg p.o. q.d. 10 consecutive days.
The mark [5] stands for this setting: 60 mg/kg p.o. q.d. 10 consecutive days.

The compound `CN1CCN(c2ccc(OC(F)(F)F)c(Nc3ncc4c(n3)-c3c(c(C(N)=O)nn3CCO)CC4)c2)CC1` [NMS-P937, onvansertib, reference compound] showed a negative logarithm of the IC50 (pIC50) in data set [1] of 7.27. The “Max Inhibition Percentage” value in data set [1] (first column of this head) turned out to be 85.9; in data set [1] (second column of this head), 2.3. For the same compound, the figures for the TGI in data set [2] (setting [4]) and in data set [2] (setting [5]) were 44.1% and 64.2%, respectively. In data set [2] (60 mg/kg p.o. q.d., 8 mice per group), the mice died entry was “three”. For the same compound, the figures for the F in data set [3] (PO 5 mg/kg vs IV 2 mg/kg) and in data set [3] (PO 10 mg/kg vs IV 10 mg/kg) were 20.5% and 27.1%, respectively.
Consider `[2H]C1([2H])CN(c2ccc(OC(F)(F)F)c(Nc3ncc4c(n3)-c3c(c(C(N)=O)nn3CCO)CC4)c2)C([2H])([2H])[C@H]2CCCN21` [CPD04], for which, in data set [1], the pIC50 is 6.98. For the same compound, the “Max Inhibition Percentage” value in data set [1] (first column of this head) is 87.6; in data set [1] (second column of this head), 1.3. Besides, the TGI in data set [2] (setting [4]) worked out at 7.6%; in data set [2] (setting [5]) it was 30.5%. In data set [3] (PO 10 mg/kg vs IV 10 mg/kg), the F is listed as 42.8%.
The compound `[2H]C1([2H])N(C)C([2H])([2H])C([2H])([2H])N(c2ccc(OC(F)(F)F)c(Nc3ncc4c(n3)-c3c(c(C(N)=O)nn3CCO)CC4)c2)C1([2H])[2H]` [CPD06] had a pIC50 in data set [1] of 7.24. Besides, the “Max Inhibition Percentage” value in data set [1] (first column of this head) worked out at 93.7; in data set [1] (second column of this head), 13.7. Besides, the TGI was 42.4% in data set [2] (setting [4]) and 75.6% in data set [2] (setting [5]). The F in data set [3] (PO 10 mg/kg vs IV 10 mg/kg) was found to be 43.1%.
